Drawing on US6716851B2, “Substituted 2-aryl-4-arylaminopyrimidines and analogs as activators or caspases and inducers of apoptosis and the use thereof” (Cytovia, Inc., priority 2000, dated 2004), this text covers GI50 and IC50 for one compound.

Common to all, as to format: cell-based
Assay [1] relates to MES-SA (sarcoma cell line). The assay can be described thus: Cell proliferation assay (GI50) in MES-SA cells. The note with it: Homo sapiens, 48 h. The method, then: [Worded in the source for another cell line; this cell line is reported under the same test.] (§1) T-47D cells were grown and harvested as in Example 221. An aliquot of 90 μl of cells (2.2×10^4 cells/ml) was added to a well of a 96-well microtiter plate containing 10 μl of a 10% DMSO in RPMI-1640 media solution containing 1 nM to 100 μM of 4-(3-methoxyanilino)-2-(2-pyridinyl)-6-(trifluoromethyl)pyrimidine (0.1 nM to 10 μM final). An aliquot of 90 μl of cells was added to a well of a 96-well microtiter plate containing 10 μl of a 10% DMSO in RPMI-1640 media solution without compound as the control sample for maximal cell proliferation (AMax). The samples were mixed by agitation and then incubated at 37° C. for 48 h in a 5% CO2-95% humidity incubator. After incubation, the samples were removed from the incubator and 20 μl of CellTiter 96 AQueous One Solution Cell Proliferation^TM reagent (Promega) was added. The samples were mixed by agitation and incubated at 37° C. for 2-4 h in a 5% CO2-95% humidity incubator. Using an absorbance plate reader (Model 1420 Wallac Instruments), an initial reading (T=0) was made approximately 1-2 min after addition of the solution, employing absorbance at 490 nm. This determines the possible background absorbance of the test compounds. No absorbance for 4-(3-methoxyanilino)-2-(2-pyridinyl)-6-(trifluoromethyl)pyrimidine was found at 490 nm. After the 2-4 h incubation, the samples were read for absorbance as above (ATest). […]

For assay [2], the system named is PC-3 (prostate cancer cell line). Briefly: Cell proliferation assay (GI50) in PC-3 cells. The note with it: Homo sapiens, PC-3, 48 h. The method, then:
[Worded in the source for another cell line; this cell line is reported under the same test.] as §1

Assay [3] relates to P388 (mouse leukemia cell line). The assay can be described thus: Cell proliferation assay (GI50) in P388 cells. To be noted: P388, 48 h. The method, then:
[Worded in the source for another organism; used here, by the source, with some conditions changed.] as §1

In assay [4] the test system is SW620 (colorectal cancer cell line). The assay can be described thus: Cell proliferation assay (GI50) in SW620 cells. The note with it: Homo sapiens, SW-620; SW620, 48 h. The method, then:
[Worded in the source for another cell line; used here, by the source, with some conditions changed.] as §1

The next assay has as its system ZR-75-1 cells. The assay can be described thus: Cell proliferation assay (GI50) in ZR-75-1 cells. To be noted: Homo sapiens; ZR 75-1, 48 h. The method, then: [Worded in the source for another cell line; this cell line is reported under the same test.] as §1
For the next assay, the system named is MCF-7 cells. Briefly: Cell proliferation assay (GI50) in MCF-7 cells. To be noted: Homo sapiens, MCF7; MCF-7, 48 h. The method, then:
[Worded in the source for another cell line; this cell line is reported under the same test.] as §1

The next assay concerns T-47D cells. Briefly: Cell proliferation assay (GI50) in T-47D cells. The note with it: Homo sapiens, T47D, 48 h. The method, then:
as §1

The subject of assay [5] is Panc-1 (pancreatic cancer cell line). The assay can be described thus: Cell proliferation assay (GI50) in Panc-1 cells. The note with it: Homo sapiens, PANC-1, 48 h. The method, then:
[Worded in the source for another cell line; this cell line is reported under the same test.] as §1

In another assay the test system is MDA-MB-435 cells. The assay can be described thus: Cell proliferation assay (GI50) in MDA-MB-435 cells. The note with it: Homo sapiens, MDA-MB-435, 48 h. The method, then:
[Worded in the source for another cell line; this cell line is reported under the same test.] as §1

The next assay relates to SK-Br-3 cells. The assay can be described thus: Cell proliferation assay (GI50) in SK-Br-3 cells. The note with it: Homo sapiens, SK-BR-3, 48 h. The method, then: [Worded in the source for another cell line; this cell line is reported under the same test.] as §1
For a further assay, the system named is MX-1 cells. The assay can be described thus: Clonogenic survival of MX-1 cells. To be noted: Homo sapiens, MX1; MX-1, 48 h treatment, colonies after 7-10 days; read-out: IC50 inhibition of clonogenic survival (colony forming ability), MX-1. The method, then: T47D and MX-1 cells were grown according to the conditions according conditions recommended by American Type Culture Collection. In a well of a 96 well plate, 30,000 cells were seeded and treated with tested compound at the indicated concentrations for 48 hr in a 5% CO2-95% humidity incubator at 37° C. Control wells were treated with the same amount of solvent (DMSO) as the compound samples. After the 48 h treatment, the supernatant was removed to a sterile culture tube and the wells washed with phosphate buffered saline, and the adherent cells trypsinized for 5 min. The trypsinzed cells were added to the culture supernatant, cells were collected (1,200 rpm, 10 min), washed with phosphate buffered saline, and resuspended in fresh media. The cells were counted for trypan blue negative cells, and the cells diluted with fresh media to 1,000 cells/ml. To a well of a 24-well plate, 0.1 ml of the cell suspension was added along with 1 ml of fresh media (cell suspensions were passed through a 22G needle several times just before plating to form single cell suspensions). Plates are incubated in a 5% CO2-95% humidity incubator at 37° C. for 7-10 days. Colonies are counted when the sizes reached greater than 50 cells per colony. […] Colonies are rinsed with water and the colonies counted and the fraction surviving expressed as the percentage of the number of control colonies.

Read-outs that look alike come from different tables or passages of the source.

Broadly, the GI50 is the concentration giving 50% growth inhibition. In general, IC50 refers to the concentration that inhibits the measured activity by half. `COc1cccc(Nc2cc(C(F)(F)F)nc(-c3ccccn3)n2)c1` [Compound A, 4-(3-methoxyanilino)-2-(2-pyridinyl)-6-(trifluoromethyl)pyrimidine]: the GI50 in assay [1] was greater than 10000 nM; in assay [2], greater than 10000 nM; in assay [3], greater than 10000 nM; in assay [4], greater than 10000 nM; in the assay with ZR-75-1 cells, 100 nM; with MCF-7 cells it was 100 nM. Also, the GI50 with T-47D cells (T-47D, Table II, read-out: GI50) was 30 nM; in the assay on T-47D cells (Table III, read-out: GI50(nM) T47D), 30 nM; in [5] it was greater than 10000 nM; in the assay on MDA-MB-435 cells, 4500 nM; in the assay with SK-Br-3 cells, 60 nM. For the same compound, in the assay with MX-1 cells, the IC50 is roughly 300 nM.
